According to PubChem BioAssay AID651642 (Sanford-Burnham Center for Chemical Genomics, 2012):

Tests used:
H9c2 = assay: cardiomyocyte survival under oxidative or metabolic stress – cell-based, panel, H9c2 and HL-1, H2O2, 2-deoxyglucose, ATP luminescence, SAR follow-up (AID 651642)
HL-1 = assay: as above
[1] = H9c2/HL-1 cardiomyocyte 2-deoxyglucose damage, mean of runs, with 2-deoxyglucose, mean IC50 across panel
[2] = H9c2/HL-1 cardiomyocyte 2-deoxyglucose damage, run 1, with 2-deoxyglucose
[3] = H9c2/HL-1 cardiomyocyte 2-deoxyglucose damage, run 2, with 2-deoxyglucose
[4] = H9c2/HL-1 cardiomyocyte 2-deoxyglucose damage, run 3, with 2-deoxyglucose
[5] = H9c2/HL-1 cardiomyocyte 2-deoxyglucose damage, run 4, with 2-deoxyglucose
[6] = H9c2/HL-1 cardiomyocyte H2O2 oxidative damage, run 1, with H2O2
[7] = H9c2/HL-1 cardiomyocyte H2O2 oxidative damage, run 2, with H2O2
[8] = H9c2/HL-1 cardiomyocyte H2O2 oxidative damage, run 3, with H2O2
[9] = H9c2/HL-1 cardiomyocyte H2O2 oxidative damage, run 4, with H2O2
[10] = H9c2/HL-1 cardiomyocyte H2O2 oxidative damage, mean of runs, with H2O2, mean IC50 across panel

Structure (SMILES)	IC50 (H9c2; [1]) [µM]	IC50 (H9c2; [2]) [µM]	IC50 (H9c2; [3]) [µM]	IC50 (H9c2; [4]) [µM]	IC50 (H9c2; [5]) [µM]	IC50 (H9c2; [6]) [µM]	IC50 (H9c2; [7]) [µM]	IC50 (H9c2; [8]) [µM]	IC50 (H9c2; [9]) [µM]	IC50 (HL-1; [1]) [µM]	IC50 (HL-1; [2]) [µM]	IC50 (HL-1; [3]) [µM]	IC50 (HL-1; [4]) [µM]	IC50 (HL-1; [5]) [µM]	IC50 (HL-1; [6]) [µM]	IC50 (HL-1; [7]) [µM]	IC50 (HL-1; [8]) [µM]	IC50 (HL-1; [9]) [µM]	IC50 (H9c2; [10]) [µM]	IC50 (HL-1; [10]) [µM]
COc1cc(-c2cc(C(=O)Nc3cccc(C(C)=O)c3)c3cc(Br)ccc3n2)cc(OC)c1OC	> 79	> 79	> 79	> 79	> 79	> 79	10.4	> 79	> 79	> 79	> 79	> 79	> 79	> 79	> 79	9.89	2.56	2.83		
COc1cc(-c2cc(C(=O)Nc3cccc(C(=O)NCc4ccccc4)c3)c3ccccc3n2)cc(OC)c1OC	3.38	3.81	4.57	2.32	2.81	1.54	1.62	0.678	0.686	1.36	0.74	0.813	1.85	2.05	1.7	2.25	2.4	6.96	1.13	3.33
COc1ccc2c(c1OC)C(=O)N1c3ccccc3C(=O)N(Cc3cccc(C)c3)C21 (configuration not stated)	> 79	> 79	> 79	> 79	> 79	5.63	6	> 79	> 79	10.6	7.52	8.41	12	14.6	> 79	> 79	> 79	> 79		> 79
COc1ccc2c(c1OC)C(=O)N1c3ccccc3C(=O)N(Cc3ccccn3)C21 (configuration not stated)	> 79	> 79	> 79	> 79	> 79	7.56	10.3	> 79	> 79	> 79	> 79	> 79	> 79	> 79	> 79	> 79	> 79	> 79		> 79
COc1cc(-c2cc(C(=O)Nc3cccc(C(N)=O)c3)c3ccccc3n2)cc(OC)c1OC		31.1	31.3	> 79	> 79	2.23	2.4	2.49	2.57	14.2	7.32	8.09	19.2	22.1	4.52	5.96	2.31	7.08	2.42	4.97
CCOC(=O)c1ccc(NC(=O)c2cc(-c3cc(OC)c(OC)c(OC)c3)nc3ccccc23)cc1	> 79	> 79	> 79	> 79	> 79	> 79	21.5	> 79	> 79	> 79	> 79	> 79	> 79	> 79	> 79	> 79	> 79	> 79		> 79
COc1ccc2c(c1OC)C(=O)N1c3ccccc3C(=O)N(Cc3ccccc3F)C21 (configuration not stated)	34.3	36.6	37.9	31.3	31.6	1.35	2.03	> 79	> 79	7.16	2.26	2.31	8.41	15.7	> 79	> 79	> 79	> 79		> 79
CCOC(=O)c1cccc(NC(=O)CNC(=O)c2cc(-c3cc(OC)c(OC)c(OC)c3)nc3ccc(OC)cc23)c1	3.16	4.42	4.8	1.68	1.75	0.965	0.974	0.483	0.534	2.3	1.59	1.73	2.93	2.94	3.75	3.81	2.62	4.12	0.739	3.57
COC(=O)CNC(=O)c1cc(-c2cc(OC)c(OC)c(OC)c2)nc2ccccc12	> 79	> 79	> 79	> 79	> 79	> 79	39.1	> 79	> 79	> 79	> 79	> 79	> 79	> 79	> 79	41.2	> 79	> 79		
COc1ccc2c(c1OC)C(=O)N1c3ccccc3C(=O)N(Cc3c(Cl)cccc3Cl)C21 (configuration not stated)	> 79	> 79	> 79	> 79	> 79	3.42	3.73	> 79	> 79		6.31	6.5	> 79	> 79	> 79	> 79	> 79	> 79		> 79
COc1ccc2c(c1OC)C(=O)N1c3ccccc3C(=O)N(Cc3cccc(Br)c3)C21 (configuration not stated)	> 79	> 79	> 79	> 79	> 79	2.22	3.79	> 79	> 79	7.49	5.07	5.69	7.9	11.3	> 79	> 79	> 79	> 79		> 79
COc1cc(-c2cc(C(=O)Nc3cccc(C(C)=O)c3)c3ccccc3n2)cc(OC)c1OC	> 79	> 79	> 79	> 79	> 79	3.74	4.04	> 79	3.69	8.62	5.68	6.27	8.63	13.9	5.59	5.68	6.71	10.3		7.06
COc1cc(-c2cc(C(=O)NCC(=O)Nc3cccc(C(C)=O)c3)c3cc(Br)ccc3n2)cc(OC)c1OC	6.44	8.22	8.41	4.43	4.71	1.48	1.49	1.02	1.06	3.83	2.44	4.64	3.4	4.85	3.56	3.69	2.7	3.41	1.26	3.34
CCOC(=O)c1cccc(NC(=O)c2cc(-c3cc(OC)c(OC)c(OC)c3)nc3ccc(Br)cc23)c1	> 79	> 79	> 79	> 79	> 79	2.86	3.15	> 79	> 79	> 79	> 79	> 79	> 79	> 79	> 79	> 79	> 79	4.69		
COc1cc(-c2cc(C(=O)Nc3cccc(C(C)=O)c3)c3ccc(Cl)cc3n2)cc(OC)c1OC	> 79	> 79	> 79	> 79	> 79	3.39	3.79	> 79	> 79	> 79	> 79	> 79	> 79	> 79	3.07	3.46	0.875	1.65		2.26
CCOC(=O)c1cccc(NC(=O)c2cc(-c3cc(OC)c(OC)c(OC)c3)nc3ccc(C)cc23)c1	> 79	> 79	> 79	> 79	> 79	2.98	3.24	2.59	3.01		2.03	2.12	> 79	> 79	> 79	2.63	1.79	2.94	2.96	
